{
  "source": "patent US11505548B2",
  "about": "“Heterocyclic compounds and their use for treatment of helminthic infections and diseases” (Celgene Corporation, priority 2019, dated 2022)",
  "system": "Onchocerca gutturosa Adult Male Worms",
  "assay": "Onchocerciasis in vitro screening model, worm motility score",
  "format": "cell-based",
  "conditions": "read-out: O. gutturosa activity level (IC50 or MED)",
  "key": {"[1]": {"conditions": "in vitro, Onchocerca gutturosa adult male worms, class A/B/C"}, "[2]": {"conditions": "Onchocerca gutturosa, Table 1 O. gutturosa, levels A/B/C, motility or MTT readout not specified"}},
  "note": "Like-named read-outs stand apart in the source and are kept apart here.",
  "data": [
    {"smiles": "CC(C)Oc1cnc(-c2nsc(Nc3ncccc3S(=O)(=O)N(C)C)n2)cc1C(F)(F)F", "note": "[Compound 320, 2-(3-(5-isopropoxy-4-(trifluoromethyl)pyridin-2-yl)-1,2,4-thiadiazol-5-ylamino)-N,N-dimethyl-pyridine-3-sulfonamide]", "values": [
      {"measurement": "IC50", "setting": "[1]", "value": "500 to 5000", "unit": "nM"}
    ]},
    {"smiles": "CC(C)COc1ccc(-c2nsc(Nc3ncccc3N(C)C)n2)nc1", "note": "[Compound 149, N2-(3-(5-isobutoxy-pyridin-2-yl)-1,2,4-thiadiazol-5-yl)-N3,N3-dimethyl-pyridine-2,3-diamine]", "values": [
      {"measurement": "IC50", "setting": "[2]", "value": "< 200", "unit": "nM"}
    ]},
    {"smiles": "Cc1ccnc(Nc2nc(-c3ncccc3C(F)(F)F)ns2)c1", "note": "[Compound 13, N-(4-methyl-pyridin-2-yl)-3-(3-(trifluoro-methyl)pyridin-2-yl)-1,2,4-thiadiazol-5-amine]", "values": [
      {"measurement": "IC50", "setting": "[2]", "value": "500 to 5000", "unit": "nM"}
    ]},
    {"smiles": "CCN(c1nc(-c2ccc(OC(C)C)cn2)ns1)c1ncccc1C", "note": "[Compound 131, N-ethyl-3-(5-isopropoxy-pyridin-2-yl)-N-(3-methyl-pyridin-2-yl)-1,2,4-thiadiazol-5-amine]", "values": [
      {"measurement": "IC50", "setting": "[2]", "value": "< 200", "unit": "nM"}
    ]},
    {"smiles": "CC(C)Oc1cnc(-c2nsc(Nc3ncccc3C(F)(F)F)n2)cc1C(=O)N(C)C", "note": "[Compound 218, 5-isopropoxy-N,N-dimethyl-2-(5-(3-(trifluoromethyl)pyridin-2-ylamino)-1,2,4-thiadiazol-3-yl)isonico-tinamide]", "values": [
      {"measurement": "IC50", "setting": "[1]", "value": "500 to 5000", "unit": "nM"}
    ]},
    {"smiles": "CNc1cccnc1Nc1nc(-c2ccc(OC(C)C)cn2)ns1", "note": "[Compound 108, N2-(3-(5-isopropoxypyridin-2-yl)-1,2,4-thiadiazol-5-yl)-N3-methyl-pyridine-2,3-diamine]", "values": [
      {"measurement": "IC50", "setting": "[2]", "value": "200 to 500", "unit": "nM"}
    ]},
    {"smiles": "O=C(CC(F)(F)F)N1CCN(c2ccc(Nc3nc(-c4ccc(OC5CC5)cn4)ns3)nc2)CC1", "note": "[Compound 113, 1-(4-(6-(3-(5-cycloprop-oxypyridin-2-yl)-1,2,4-thiadiazol-5-ylamino)pyridin-3-yl)piperazin-1-yl)-3,3,3-trifluoro-propan-1-one]", "values": [
      {"measurement": "IC50", "setting": "[2]", "value": "500 to 5000", "unit": "nM"}
    ]},
    {"smiles": "CC(C)Oc1ccc(-c2nsc(Nc3ncccc3C3CC3)n2)nc1", "note": "[Compound 76, N-(3-cyclopropyl-pyridin-2-yl)-3-(5-isopropoxy-pyridin-2-yl)-1,2,4-thiadiazol-5-amine]", "values": [
      {"measurement": "IC50", "setting": "[2]", "value": "< 200", "unit": "nM"}
    ]},
    {"smiles": "CC(=O)N(C)c1cc(C(F)(F)F)cnc1Nc1nc(-c2cc3c(cn2)N(C)C(C)(C)C3)ns1", "note": "[Compound 291, N-methyl-N-(5-(trifluoromethyl)-2-(3-(1,2,2-trimethyl-2,3-dihydro-1H-pyrrolo[2,3-c]pyridin-5-yl)-1,2,4-thiadiazol-5-ylamino)pyridin-3-yl)acetamide]", "values": [
      {"measurement": "IC50", "setting": "[1]", "value": "< 200", "unit": "nM"}
    ]},
    {"smiles": "COc1ccc(Nc2nc(-c3cc(OC4CCCCC4)ccn3)ns2)nc1", "note": "[Compound 183, 3-(4-(cyclo-hexyloxy)pyridin-2-yl)-N-(5-methoxypyridin-2-yl)-1,2,4-thiadiazol-5-amine]", "values": [
      {"measurement": "IC50", "setting": "[2]", "value": "200 to 500", "unit": "nM"}
    ]},
    {"smiles": "CNc1cccnc1Nc1nc(-c2cc(C)ccn2)ns1", "note": "[Compound 23, N3-methyl-N2-(3-(4-methylpyridin-2-yl)-1,2,4-thiadiazol-5-yl) pyridine-2,3-diamine]", "values": [
      {"measurement": "IC50", "setting": "[2]", "value": "< 200", "unit": "nM"}
    ]},
    {"smiles": "CC(C)Oc1ccc(-c2nsc(Nc3ncccc3C(=O)N(C)C3CC(F)(F)C3)n2)nc1", "note": "[Compound 191, N-(3,3-difluoro-cyclobutyl)-2-(3-(5-isoprop-oxypyridin-2-yl)-1,2,4-thiadiazol-5-ylamino)-N-methyl-nicotinamide]", "values": [
      {"measurement": "IC50", "setting": "[2]", "value": "200 to 500", "unit": "nM"}
    ]},
    {"smiles": "CN(C)c1cccnc1Nc1nc(-c2ccc(OC3CC3)cn2)ns1", "note": "[Compound 78, N2-(3-(5-cyclopropoxy-pyridin-2-yl)-1,2,4-thiadiazol-5-yl)-N3,N3-dimethyl-pyridine-2,3-diamine]", "values": [
      {"measurement": "IC50", "setting": "[2]", "value": "500 to 5000", "unit": "nM"}
    ]},
    {"smiles": "CC(=O)N(C)c1cc(C(F)(F)F)cnc1Nc1nc(-c2ccc(OC(C)C)cn2)ns1", "note": "[Compound 247, N-(2-(3-(5-isopropoxy-pyridin-2-yl)-1,2,4-thiadiazol-5-ylamino)-5-(trifluoro-methyl)pyridin-3-yl)-N-methylacetamide]", "values": [
      {"measurement": "IC50", "setting": "[1]", "value": "< 200", "unit": "nM"}
    ]},
    {"smiles": "Cc1cccnc1-c1noc(Nc2ccc(N3CCCC3)cn2)n1", "note": "[Compound 42, 3-(3-methyl-pyridin-2-yl)-N-(5-(pyrrolidin-1-yl)pyridin-2-yl)-1,2,4-oxadiazol-5-amine]", "values": [
      {"measurement": "IC50", "setting": "[2]", "value": "< 200", "unit": "nM"}
    ]},
    {"smiles": "CC(=O)N(C)c1cnc(Nc2nc(-c3ccc(OC(C)C)cn3)ns2)c(C)c1", "note": "[Compound 297, N-(6-(3-(5-isopropoxypyridin-2-yl)-1,2,4-thiadiazol-5-ylamino)-5-methylpyridin-3-yl)-N-methylacetamide]", "values": [
      {"measurement": "IC50", "setting": "[1]", "value": "200 to 500", "unit": "nM"}
    ]},
    {"smiles": "CC(C)Oc1ccc(-c2nsc(Nc3ncccc3C(=O)N3CCCC3)n2)nc1", "note": "[Compound 190, (2-(3-(5-isoprop-oxypyridin-2-yl)-1,2,4-thiadiazol-5-ylamino)pyridin-3-yl) (pyrrolidin-1-yl) methanone]", "values": [
      {"measurement": "IC50", "setting": "[2]", "value": "200 to 500", "unit": "nM"}
    ]},
    {"smiles": "Cc1ccnc(Nc2nnc(-c3ncccc3C)s2)c1", "note": "[Compound 244, 5-(3-methyl-pyridin-2-yl)-N-(4-methyl-pyridin-2-yl)-1,3,4-thiadiazol-2-amine]", "values": [
      {"measurement": "IC50", "setting": "[1]", "value": "500 to 5000", "unit": "nM"}
    ]},
    {"smiles": "CC(C)Oc1cnc(-c2nsc(Nc3ncccc3N3CCCC3=O)n2)cc1C(F)(F)F", "note": "[Compound 179, 1-(2-(3-(5-isopropoxy-4-(trifluoromethyl)pyridin-2-yl)-1,2,4-thiadiazol-5-ylamino)pyridin-3-yl)pyrrolidin-2-one]", "values": [
      {"measurement": "IC50", "setting": "[2]", "value": "500 to 5000", "unit": "nM"}
    ]},
    {"smiles": "Cc1cccnc1Nc1nnc(-c2cc(C(C)C)ccn2)o1", "note": "[Compound 104, 5-(4-isopropyl-pyridin-2-yl)-N-(3-methyl-pyridin-2-yl)-1,3,4-oxadiazol-2-amine]", "values": [
      {"measurement": "IC50", "setting": "[2]", "value": "< 200", "unit": "nM"}
    ]},
    {"smiles": "CC(C)c1cnc(Nc2nc(-c3cc4c(cn3)N(C)CC4)ns2)cc1C(F)(F)F", "note": "[Compound 322, N-(5-isopropyl-4-(trifluoromethyl)pyridin-2-yl)-3-(1-methyl-2,3-dihydro-1H-pyrrolo[2,3-c]pyridin-5-yl)-1,2,4-thiadiazol-5-amine]", "values": [
      {"measurement": "IC50", "setting": "[1]", "value": "< 200", "unit": "nM"}
    ]},
    {"smiles": "Cc1cccnc1Nc1nc(-c2ccc(OC(F)(F)F)cn2)ns1", "note": "[Compound 52, N-(3-methyl-pyridin-2-yl)-3-(5-(trifluoro-methoxy)pyridin-2-yl)-1,2,4-thiadiazol-5-amine]", "values": [
      {"measurement": "IC50", "setting": "[2]", "value": "< 200", "unit": "nM"}
    ]},
    {"smiles": "Cc1cccnc1Nc1nc(-c2cc(C#N)c(OC(C)C)cn2)ns1", "note": "[Compound 200, 5-isopropoxy-2-(5-(3-methylpyridin-2-ylamino)-1,2,4-thiadiazol-3-yl)isonicotino-nitrile]", "values": [
      {"measurement": "IC50", "setting": "[1]", "value": "500 to 5000", "unit": "nM"}
    ]},
    {"smiles": "CC(C)Oc1cnc(-c2nsc(Nc3ncccc3N(C)C)n2)cn1", "note": "[Compound 126, N2-(3-(5-iso-propoxypyrazin-2-yl)-1,2,4-thiadiazol-5-yl)-N3,N3-dimethylpyridine-2,3-diamine]", "values": [
      {"measurement": "IC50", "setting": "[2]", "value": "500 to 5000", "unit": "nM"}
    ]},
    {"smiles": "CC(C)c1cnc(Nc2nc(-c3cc(OC4CC4)ccn3)ns2)cc1C(F)(F)F", "note": "[Compound 96, 3-(4-cycloprop-oxypyridin-2-yl)-N-(5-isopropyl-4-(trifluoromethyl)pyridin-2-yl)-1,2,4-thiadiazol-5-amine]", "values": [
      {"measurement": "IC50", "setting": "[2]", "value": "< 200", "unit": "nM"}
    ]},
    {"smiles": "CC(=O)N1CCc2cc(-c3nsc(Nc4ncccc4C(F)(F)F)n3)ncc21", "note": "[Compound 267, 1-(5-(5-(3-(trifluoromethyl)pyridin-2-ylamino)-1,2,4-thiadiazol-3-yl)-2,3-dihydro-1H-pyrrolo[2,3-c]pyridin-1-yl)ethanone]", "values": [
      {"measurement": "IC50", "setting": "[1]", "value": "500 to 5000", "unit": "nM"}
    ]},
    {"smiles": "CC(C)c1ccnc(-c2nsc(Nc3ncccc3N(C)C(=O)C3CC3)n2)c1", "note": "[Compound 217, N-(2-(3-(4-isopropylpyridin-2-yl)-1,2,4-thiadiazol-5-ylamino)pyridin-3-yl)-N-methylcyclo-propanecarbox-amide]", "values": [
      {"measurement": "IC50", "setting": "[1]", "value": "200 to 500", "unit": "nM"}
    ]}
  ]
}
